Reference: US8816109B2, “Process for preparation of hexadecyl cis-9-tetradecenoate and hexadecyl cis-10-tetradecenoate” (Council of Scientific & Industrial Research, priority 2009, dated 2014)

Assays:
[1] = test system: Freund's complete adjuvant induced arthritis; experiment: Freund's complete adjuvant induced arthritis model, treatment of established arthritis; type: in vivo, Male Wistar rats; conditions: for dose dependence of inhibition of arthritis: dose increased from 100 mg/kg to 300 mg/kg
Method: (§1) The anti-inflammatory activity potential of both the isomers of the cetyl myristoleate (4 & 8) was evaluated initially in carrageenan induced rat paw edema model employing the method of Winter et al (Winter C A, Risley E A and Nuss G W, J. Pharmacolo. Exp. Ther. 1963; 141:369-376). The arthritis developed by injecting Freund's Complete Adjuvant in Wistar rats is almost similar to the rheumatoid arthritis of the human beings.
Effect of Hexadecyl cis-9-Tetradecenoate and Hexadecyl cis-10-Tetradecenoate on the Arthritic Rats: The hexadecyl cis-9-tetradecenoate, 4 and hexadecyl cis-10-tetradecenoate, 8 produced synthetically given above in Scheme 1 and 2 were subjected to evaluation for anti-arthritic potential in Freund's complete adjuvant induced arthritis model in rats. Male Wistar rats were divided into 4 groups each containing 6 rats. Arthritis was induced in rats in all the groups by administering Complete Freund's Adjuvant (CFA) at the dose of 1 mg per rat by injecting at sub plantar region of the right hind paw. Paw volumes were measured for both paws on every alternate day till 14 days and till full arthritis was developed.

[2] = test system: collagen-induced arthritis; conditions: synthesized pure compound, DBA/1 Lac J mice; cited from earlier work
[3] = test system: carrageenan induced paw edema; experiment: carrageenan induced rat paw edema model (anti-inflammatory potential); type: in vivo; conditions: rats
Method: as §1
Evaluation Studies of Hexadecyl cis-9-Tetradecenoate and Hexadecyl cis-10-Tetradecenoate for Anti-inflammatory. Potential: Hexadecyl cis-9-tetradecenoate, 4 and hexadecyl cis-10-tetradecenoate, 8 produced synthetically exemplified above in Scheme 1 and Scheme 2 were assessed for the anti-inflammatory potential against carrageenan induced paw edema model. Rats were divided into 4 groups. Hexadecyl cis-9-tetradecenoate, 4. and hexadecyl cis-10-tetradecenoate, 8 were administered intraperitoneally to rats in two different groups at a dose of 400 mg/kg. […] Paw volumes were measured using plethysmometer before injecting carrageenan. Paw volumes were again measured 3 hr after the carrageenan administration. The anti-inflammatory potential of hexadecyl cis-9-tetradecenoate, 4 and hexadecyl cis-10-tetradecenoate, 8 were assessed by measuring the inhibition of the paw volumes with reference to mean paw volume in control group.

[4] = test system: Freund's Complete Adjuvant induced poly arthritis; experiment: Freund's complete adjuvant induced polyarthritis, protection (dosing from 24 hr after adjuvant); type: in vivo, Male Wistar rats
Method: Evaluation of Hexadecyl cis-10-Tetradecenoate for Anti-arthritic Potential in Rats: The hexadecyl cis-10-tetradecenoate, 8 produced synthetically exemplified above in Scheme 2 was administered parenterally, particularly, by intraperitoneal route, either alone or in a compatible pharmaceutical carrier such as vegetable oils namely groundnut, sesame and cottonseed [for adjusting the dose volume of the active compound(s)] to male rats ranging in weight from 150 to 180 g. It should be noted that use of the mineral oil is not mandatory as the active compounds are oils themselves. The procedure as described in (Vogel's Drug Discovery and Evaluation Pharmacological assays, 2nd ed, 2002, Springer Verlag, pages 802-803) was followed. Male Wistar-rats were divided into one control and two treated groups. All the animals in three groups received Freund's complete adjuvant (1 mg/rat). This day was designated as day 1. After a period of 24 hr, hexadecyl cis-10-tetradecenoate, 8 was administered at a dose of 300 mg/kg to one treated group and another treated group received 2.5 mg/kg of indomethacin (used as standard drug). Dosing was continued for 15 days (FIG. 3). Control group received the vehicle (mineral oil) without any drug. Paw volumes (left and right) were measured on every alternate day.
All the rats in the control group developed severe polyarthritis as indicated by the increase in the paw volumes. […] Around 80% of the animals in the hexadecyl cis-10-tetradecenoate treated group were protected from developing arthritis in a period of 21 days. The remaining 20% rats were protected from arthritis in a period of 32 days.

Compound	dose dependence of inhibition of arthritis [1]	anti arthritic properties [2]	inhibition of inflammation compared with hexadecyl cis-9-tetradecenoate, 4 [3]	reduction of adjuvant-induced arthritis compared with hexadecyl cis-9-tetradecenoate, 4 ([1]; rats)	animals protected from developing arthritis in a period of 21 days ([4]; 300 mg/kg intraperitoneal, dosing for 15 days)	animals protected from developing arthritis in a period of 21 days ([4]; 300 mg/kg intraperitoneal, dosing for 15 days, listed as hexadecyl cis-10-tetradecenoate)	remaining rats protected from arthritis in a period of 32 days ([4]; 300 mg/kg intraperitoneal, dosing for 15 days, period of 32 days)	protection from polyarthritis (paw volumes) ([4]; 300 mg/kg intraperitoneal, from 24 hr after adjuvant, dosing continued for 15 days)	effective range (dose) for protection of arthritis ([4]; rats, Freund's complete adjuvant)
CCCC/C=C\CCCCCCCC(=O)OCCCCCCCCCCCCCCCC [compound 4, hexadecyl cis-9-tetradecenoate]	dose dependent	confirmed its anti arthritic properties							
CCC/C=C\CCCCCCCCC(=O)OCCCCCCCCCCCCCCCC [compound 8, hexadecyl cis-10-tetradecenoate]	dose dependent		comparable	comparable	Around 80%	80%	20%	protected from the polyarthritis	0.1 to 1.0 gm/kg body weight
